Where two headings read alike, the source gives them in different places.

Assay [1] addresses T1, oestrogen receptor (ER) (Rattus norvegicus, UniProt P06211).
T1 construct: from tissue; host or cells: rat uterine cytosol
T1 sequence (P06211 1-600): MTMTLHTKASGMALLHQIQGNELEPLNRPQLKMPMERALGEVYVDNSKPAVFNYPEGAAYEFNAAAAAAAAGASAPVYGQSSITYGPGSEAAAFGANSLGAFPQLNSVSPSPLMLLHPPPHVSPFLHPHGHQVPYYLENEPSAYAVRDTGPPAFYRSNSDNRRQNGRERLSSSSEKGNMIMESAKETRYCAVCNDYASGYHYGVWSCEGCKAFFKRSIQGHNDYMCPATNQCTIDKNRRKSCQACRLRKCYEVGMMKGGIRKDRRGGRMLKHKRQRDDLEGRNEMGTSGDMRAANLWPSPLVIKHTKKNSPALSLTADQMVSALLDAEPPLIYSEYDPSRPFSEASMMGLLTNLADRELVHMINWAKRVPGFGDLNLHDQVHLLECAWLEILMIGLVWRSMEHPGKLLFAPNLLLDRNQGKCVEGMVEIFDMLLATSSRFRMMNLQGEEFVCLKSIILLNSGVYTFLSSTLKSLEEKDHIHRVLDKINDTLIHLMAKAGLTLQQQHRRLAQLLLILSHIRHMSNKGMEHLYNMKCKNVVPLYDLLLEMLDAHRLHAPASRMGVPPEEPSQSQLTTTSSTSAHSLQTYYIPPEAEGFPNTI
The experiment in a line: Relative binding affinity for the oestrogen receptor, rat uterine cytosol competitive binding assay. The protocol: For some compounds, cytotoxicity against the MCF-7 human breast cancer cell line was determined. The test methods used were those described by M. G. Rowlands et al., Biochemical Pharmacology 40, 283-289 (1990). The relative binding offinity (RBA) for the oestrogen receptor (ER) was measured in a rat uterine cystosol competitive binding assay as described by A. E. Wakeling, 1987 (Chapter 7 p219-236 in "STEROID HORMONES--A PRACTICAL APPROACH" Eds B. Green and R. E. Leake, IRL Press Ltd, Oxford, UK).

The target in assay [2] is calmodulin dependent cAMP-PDE (Homo sapiens, UniProt P0DP23). Description: Antagonism of calmodulin dependent cAMP-PDE (inhibiting the activation of cyclic AMP phosphodiesterase by calmodulin). In kind it is biochemical.
Assay [3] concerns receptor from calf uterine cytosol. The conditions noted are these: calf uterine cytosol (oestradiol = 100); J. Med. Chem. 32, 2527-2533 (1989); cited from earlier work.
The subject of assay [4] is rat uterine receptor. The conditions noted are these: Cancer Research 51, 5851-5858 (1991); cited from earlier work.
The subject of assay [5] is MCF-7 human breast cancer cell line. The experiment in a line: Short term in vitro cytotoxicity against MCF-7 human breast cancer cell line. Particulars: MCF7, read-out: Short Term in vitro cytotoxicity MCF-7 IC50 ± SD. How it is done:
For some compounds, cytotoxicity against the MCF-7 human breast cancer cell line was determined.

For assay [6], the system named is oestrogen receptor. Particulars: rat uterine cytosol competitive binding assay; J. Med. Chem. 25, 167-171 (1982); cited from earlier work.
The mark [7] stands for this setting: ± SD, read-out: Antagonism of calmodulin dependent cAMP-PDE IC50 ± SD.

With `CC/C(=C(\c1ccc(I)cc1)c1ccc(OCCCCN(C)C)cc1)c1ccccc1` [n = 4, R^1 = R^2 = CH3, E-1-(4-(4-(Dimethylamino)butoxy)phenyl)-1-(4-iodophenyl)-2-phenyl-1-butene], in assay [1], the “Binding affinity for ER, RBA” value was determined as 25. Also, the IC50 (commonly the concentration that inhibits the measured activity by half) in assay [2] (setting [7]) worked out at 2250 ± 180 nM.
Turning to `C[C@]12CC[C@@H]3c4ccc(O)cc4CC[C@H]3[C@@H]1CC[C@@H]2O` [17β-estradiol], the “RBA with receptor from calf uterine cytosol” value (“RBA with receptor” below) in assay [3] is given as 100.
In the case of `CC/C(=C(\c1ccc(I)cc1)c1ccc(OCCN2CCCC2)cc1)c1ccccc1` [Idoxifene], the “RBA for rat uterine receptor” value in assay [4] was 12.5. In addition, in assay [3], the “RBA with receptor” value is given as 5. Moreover, the IC50 was found to be 7270 ± 380 nM in assay [5] and 1450 ± 80 nM in assay [2] (setting [7]).
Regarding `CC/C(=C(\c1ccccc1)c1ccc(OCCN(C)C)cc1)c1ccccc1` [Tamoxifen], the “RBA for rat uterine receptor” value in assay [4] is recorded as 5. The “RBA with receptor” value in assay [3] is given as 1. Besides, the IC50 in assay [5] stood at 14000 ± 1000 nM; in assay [2], 6750 ± 1060 nM.
As for `CC/C(=C(\c1ccc(I)cc1)c1ccc(OCCCN2CCCC2)cc1)c1ccccc1` [n = 3, NR^1 = R^2 = pyrrolidino, E-1-(4-(3-(N-pyrrolidino)propoxy)phenyl)-1-(4-iodophenyl)-2-phenyl-1-butene], in assay [1], the “Binding affinity for ER, RBA” value amounted to 23. The IC50 turned out to be 4500 ± 70 nM in assay [5] and 1110 ± 70 nM in assay [2] (setting [7]).
`CC/C(=C(\c1ccccc1)c1ccc(OCCCN2CCCC2)cc1)c1ccccc1`: the “binding affinity for the oestrogen receptor compared with pyrrolidino tamoxifen itself (n=2)” value in assay [6] was “lower binding affinity for the oestrogen receptor”.
As for `CC/C(=C(\c1ccc(I)cc1)c1ccc(OCCCN(C)C)cc1)c1ccccc1` [n = 3, R^1 = R^2 = CH3, E-1-(4-(3-(Dimethylamino)propoxy)phenyl)-1-(4-1iodophenyl)-2,phenyl-1-butene], in assay [2] (setting [7]), the IC50 amounted to 2020 ± 170 nM.
For `CC/C(=C(\c1ccc(I)cc1)c1ccc(OCCCCN2CCCC2)cc1)c1ccccc1` [n = 4, NR^1 = R^2 = pyrrolidino, E-1(4-(4-(N-pyrrolidino)butoxy)phenyl)-1-(4-iodophenyl)-2-phenylbutene], the “Binding affinity for ER, RBA” value in assay [1] worked out at 9. Moreover, the IC50 worked out at 3990 ± 600 nM in assay [5] and 1010 ± 80 nM in assay [2] (setting [7]).
Take `CC/C(=C(\c1ccc(I)cc1)c1ccc(OCCCCCCCCN2CCCC2)cc1)c1ccccc1` [n = 8, NR^1 = R^2 = pyrrolidino]: in assay [1], the “Binding affinity for ER, RBA” value turned out to be 4. For the same compound, the IC50 in assay [2] (setting [7]) came to 260 ± 50 nM.
Regarding `CC/C(=C(\c1ccc(I)cc1)c1ccc(OCCN(C)C)cc1)c1ccccc1` [4-iodotamoxifen], the “RBA for rat uterine receptor” value in assay [4] is 12.5. Moreover, the “RBA with receptor” value in assay [3] was 5. The figures for the IC50 in assay [5] and in assay [2] (setting [7]) were 7630 ± 60 nM and 2300 ± 420 nM, respectively.

The values above are taken from patent publication US5589500A, “Substituted 1,1,2-triphenylbutenes and their use in the treatment of cancer” (priority 1992, dated 1996).
